Measurements: the PolyMetriX glass transition set
± gives the standard deviation of the reports.

| Structure (SMILES) | glass transition temperature |
| --- | --- |
| *CC(*)(C)C(=O)OCCCCCCOc1ccc(/N=N/c2ccc([N+](=O)[O-])cc2)cc1 (repeat unit) | 108.00 °C |
| *CCCC(*)C (repeat unit) | -52.60 °C |
| *CCCCC(=O)NCc1ccc(CNC(=O)CCCCO*)cc1 (repeat unit) | 70.00 °C |
| *Oc1ccc(C(C)c2ccc(OC(*)=O)cc2)cc1 (repeat unit) | 130.00 °C |
| *C/C=C(\C)C(C)S(*)(=O)=O (repeat unit) | 73.00 °C |
| *CC(*)c1ccc(Cl)cc1C (repeat unit) | 145.00 °C |
| *Nc1ccc(C(=O)Nc2ccc(Cc3ccc(NC(=O)c4ccc(NC(=O)c5ccc([Si](C)(C)c6ccc(C(*)=O)cc6)cc5)cc4)cc3)cc2)cc1 (repeat unit) | 300.00 °C |
| *Oc1ccc(N[Se]Nc2ccc(*)cc2)cc1 (repeat unit) | 55.00 °C |
| *N=P(N=P(N=S(*)(=O)Nc1ccccc1)(Nc1ccccc1)Nc1ccccc1)(Nc1ccccc1)Nc1ccccc1 (repeat unit) | 82.00 °C |
| *Oc1ccc(OC(C)COCCCCCCCOc2ccc(-c3ccc(C(*)=O)cc3)cc2)c([N+](=O)[O-])c1 (repeat unit) | 50.00 °C |
| *c1ccc(Oc2ccc(Sc3ccc(Oc4ccc(N5C(=O)c6ccc(Oc7ccc(Sc8ccc(Oc9ccc%10c(c9)C(=O)N(*)C%10=O)cc8)cc7)cc6C5=O)cc4)cc3)cc2)cc1 (repeat unit) | 186.00 °C |
| *CC(*)(C)C(=O)OCCOC (repeat unit) | 24.00 °C |
| *CCCCCCOC(=O)CCCCCNC(=O)CCCCC(=O)NCCCCCC(=O)O* (repeat unit) | -7.00 °C |
| *c1cccc(P(=O)(c2ccccc2)c2cccc(N3C(=O)c4ccc(NC(=O)OCCOc5ccc(P(=O)(c6ccccc6)c6ccc(OCCOC(=O)Nc7ccc8c(c7)C(=O)N(*)C8=O)cc6)cc5)cc4C3=O)c2)c1 (repeat unit) | 218.00 °C |
| *CCCCCCC(=O)Oc1ccc(OC(=O)c2ccc3c(c2)C(=O)N(*)C3=O)c(C)c1 (repeat unit) | 57.21 °C |
| *c1ccc(-c2sc(-c3cc(SCCCCCCCC)c(*)s3)cc2SCCCCCCCC)cc1 (repeat unit) | 55.30 °C |
| *Nc1cccc(NC(=O)c2ccc(C(*)=O)cc2)c1 (repeat unit) | 238.00 °C |
| *c1ccc(Oc2ccc(Oc3ccc(N4C(=O)c5cccc(Oc6c(C)cc(Cc7cc(C)c(Oc8cccc9c8C(=O)N(*)C9=O)c(C)c7)cc6C)c5C4=O)c(C)c3)cc2)cc1C (repeat unit) | 238.00 °C |
| *c1ccc(-c2ccc(-c3ccc(-c4ccc([Si](CCCC)(CCCC)[Si](*)(CCCC)CCCC)s4)s3)s2)s1 (repeat unit) | -1.00 °C |
| *C(=O)Nc1cccc(NC(=O)c2ccc3c(c2)C(=O)N(c2ccc(Oc4cccc5c(Oc6ccc(N7C(=O)c8ccc(*)cc8C7=O)cc6)cccc45)cc2)C3=O)c1 (repeat unit) | 263.00 °C |

| Structure (SMILES) | glass transition temperature |
| --- | --- |
| *CC(*)Cc1ccccc1 (repeat unit) | 70.00 °C |
| *c1ccc(Oc2ccc(C(=O)c3cccc(C(=O)c4ccc(Oc5ccc(N6C(=O)c7ccc(Oc8ccc(Oc9ccc(Oc%10ccc%11c(c%10)C(=O)N(*)C%11=O)cc9)cc8)cc7C6=O)cc5)cc4)c3)cc2)cc1 (repeat unit) | 192.00 °C |
| *c1cccc(C(=O)c2c(C)cc(C)c(N3C(=O)c4ccc(-c5ccc6c(c5)C(=O)N(*)C6=O)cc4C3=O)c2C)c1 (repeat unit) | 320.00 °C |
| *CCOCCOCCN1C(=O)c2ccc(C(=O)Oc3ccc(OC(=O)c4ccc5c(c4)C(=O)N(*)C5=O)c(-c4ccccc4)c3)cc2C1=O (repeat unit) | 105.00 °C |
| *CCCCCCCCCCNC(=O)c1ccc(Cc2ccc(C(=O)N*)cc2)cc1 (repeat unit) | 140.00 °C |
| *CC1(*)CC(=O)N(c2ccccc2)C1=O (repeat unit) | 236.00 °C |
| *c1ccc2c(c1)C(=O)N(c1ccc(Oc3ccccc3Oc3ccc(N4C(=O)c5ccc(C(*)(C(F)(F)F)C(F)(F)F)cc5C4=O)cc3C(F)(F)F)c(C(F)(F)F)c1)C2=O (repeat unit) | 247.00 °C |
| *Oc1ccc(C(=O)c2ccc(C(=O)c3ccc(Oc4cccc(Cc5cccc(*)c5)c4)cc3)cc2)cc1 (repeat unit) | 122.00 °C |
| *CCCCCCCCCCCCNC(=O)CCCCCCCCCCCCC(=O)N* (repeat unit) | 49.00 °C |
| *CC(*)(C)C(=O)OCCCCCCOc1ccc(C(=O)Oc2ccc(/N=N/c3ccc(C#N)cc3)c3ccccc23)cc1 (repeat unit) | 41.00 °C |
| *CCCCCCCCCCCCCCC(=O)N* (repeat unit) | -7.00 °C |
| *c1ccc(C(=O)Oc2ccc(OC(=O)c3ccc(N4C(=O)CC(SCCOCCSC5CC(=O)N(*)C5=O)C4=O)cc3)cc2)cc1 (repeat unit) | 166.00 °C |
| *C(=O)c1ccc2c(c1)C(=O)N(c1ccc(Cc3ccc(C(=O)c4ccc(N5C(=O)c6ccc(*)cc6C5=O)cc4)cc3)cc1)C2=O (repeat unit) | 307.00 °C |
| *Oc1ccc(Oc2ccc(C(=O)c3cccc(NC(=O)c4cccc(C(=O)Nc5cccc(C(=O)c6ccc(*)cc6)c5)c4)c3)cc2)cc1 (repeat unit) | 202.00 °C |
| *c1ccc(Oc2ccc(C(=O)c3ccc(C(=O)c4ccc(C(=O)c5ccc(Oc6ccc(-c7nc(-c8ccccc8)[nH]c7*)cc6)cc5)cc4)cc3)cc2)cc1 (repeat unit) | 239.00 °C |
| *C(=O)NNC(=O)c1ccc([Si](c2ccccc2)(c2ccccc2)c2ccc(C(=O)NNC(=O)c3cncc(*)c3)cc2)cc1 (repeat unit) | 234.00 °C |
| *Oc1cc2ccccc2cc1OC(=O)c1ccc(Oc2ccc(C(*)=O)cc2)cc1 (repeat unit) | 148.00 °C |
| *c1ccc(Oc2ccc(Oc3ccc(N4C(=O)c5ccc(Oc6ccc7c(c6)C(=O)N(*)C7=O)cc5C4=O)cc3)cc2)cc1 (repeat unit) | 247.50 ± 6.6 °C |
| *CCCCCCCCCCOC(=O)NCc1ccc(CNC(=O)O*)cc1 (repeat unit) | 49.00 °C |
| *C(=O)OCC(COc1ccc(/N=N/c2ccc(C#N)cc2)cc1)OC(=O)c1ccc(*)s1 (repeat unit) | 119.00 °C |

Now from value to compound:

| glass transition temperature | Structure (SMILES) |
| --- | --- |
| 160.00 °C | *Oc1ccc(NC(=O)c2ccc(C(=O)Nc3ccc(Oc4ccc(C(=O)c5ccc(*)cc5)cc4)cc3)cc2)cc1 (repeat unit) |
| -63.83 ± 1 °C | *CC(*)(C)C(=O)OCCCCCCCCCC (repeat unit) [Poly(decyl methacrylate)] |
| 300.00 °C | *Oc1ccc(S(=O)(=O)c2ccc3cc(S(=O)(=O)c4ccc(Oc5c(C)cc(-c6cc(C)c(*)c(C)c6C)c(C)c5C)cc4)ccc3c2)cc1 (repeat unit) |
| 392.00 °C | *c1ccc(-c2ccc(-c3cc(-c4ccccc4)c4cc5c(-c6ccccc6)cc(*)nc5cc4n3)cc2)cc1 (repeat unit) |
| 400.00 °C | *c1ccc(Oc2ccc(-n3c(=O)c4cc5c(=O)n(-c6ccc(Oc7ccc(-c8nc9cc%10sc(*)nc%10cc9s8)cc7)cc6)c(=O)c5cc4c3=O)cc2)cc1 (repeat unit) |
| 77.00 °C | *CCCC(C)(C)CNC(=O)CCCCC(=O)N* (repeat unit) |
| 60.00 °C | *CCCCCCCCCCCOC(=O)c1cc(OCCCCCCCCOc2ccc(/N=N/c3ccc(OC)cc3)cc2)cc(C(=O)OCCCCCCCCCCCOc2ccc(-c3ccc(O*)cc3)cc2)c1 (repeat unit) |
| 265.00 °C | *c1ccc([Si](c2ccccc2)(c2ccccc2)c2ccc(-c3nnc(-c4cccc(-c5nnc(*)o5)n4)o3)cc2)cc1 (repeat unit) |
| -52.00 °C | *CC(*)c1ccc(CCCCCCCCCCCC)cc1 (repeat unit) |
| 226.00 °C | *C(=O)Oc1ccc(C2(c3ccc(OC(=O)c4ccc5c(c4)C(=O)N(c4ccc(-c6ccc(N7C(=O)c8ccc(*)cc8C7=O)cc6C)c(C)c4)C5=O)cc3)CC3CC2C2CCCC32)cc1 (repeat unit) |
| 317.00 °C | *Nc1ccc(NC(=O)c2ccc(C(=O)c3ccc(C(*)=O)c(C(=O)O)c3)cc2C(=O)O)cc1 (repeat unit) |
| -55.00 °C | *CCCCOC(=O)CCCCCCCCCCCCCCCCCCCCCCCCCCCCCCCCCCC(=O)O* (repeat unit) |
| 399.8 °C | *c1c(C)cc(C)c(-n2c(=O)c3cc4c(=O)n(*)c(=O)c4cc3c2=O)c1C (repeat unit) |
| 62.00 °C | *CCCCCCCCCOC(=O)Nc1ccc(C)c(NC(=O)O*)c1 (repeat unit) |
| 250.00 °C | *Oc1ccc(S(=O)(=O)c2ccc(Oc3ccc(C4(c5ccc(*)cc5)CC5CCC4C5)cc3)cc2)cc1 (repeat unit) |
| 246.00 °C | *C(=O)Oc1ccc2ccc(OC(=O)c3ccc4c(c3)C(=O)N(c3ccc(Oc5ccc(N6C(=O)c7ccc(*)cc7C6=O)cc5)cc3)C4=O)cc2c1 (repeat unit) |
| 217.00 °C | *Oc1ccc(Oc2ccc(C(=O)Nc3ccc(Oc4ccc(S(=O)(=O)c5ccc(Oc6ccc(NC(=O)c7ccc(*)cc7)cc6)cc5)cc4)cc3)cc2)cc1C (repeat unit) |
| 131.00 °C | */C=C/C1CC(*)C2C(=O)N(CCCC)C(=O)C12 (repeat unit) |
| 298.00 °C | *c1ccc(Oc2ccc(N3C(=O)c4cccc(Oc5c(C)cc(-c6cc(C)c(Oc7cccc8c7C(=O)N(*)C8=O)c(C)c6)cc5C)c4C3=O)cc2)cc1 (repeat unit) |
| 240.00 °C | *Oc1cccc(NC(=O)c2cccc(C(=O)Nc3ccc(*)cc3)c2)c1 (repeat unit) |
| -13.20 °C | *CCCCOCCCCOCCCCOC(=O)c1ccc(/N=C/c2ccc(/C=N/c3ccc(C(=O)O*)cc3)cc2)cc1 (repeat unit) |
| 130.00 °C | *c1cc(-c2nc3ccccc3oc2=O)cc(-n2c(=O)c3cc4c(=O)n(*)c(=O)c4cc3c2=O)c1 (repeat unit) |
| 250.00 °C | *C(=O)Nc1ccc(C(c2ccc(NC(=O)c3ccc4c(c3)C(=O)N(c3ccc(-c5ccc(N6C(=O)c7ccc(*)cc7C6=O)c(OC)c5)cc3OC)C4=O)cc2)(C(F)(F)F)C(F)(F)F)cc1 (repeat unit) |
